According to paper PMC8199067, “Urolithin and Reduced Urolithin Derivatives as Potent Inhibitors of Tyrosinase and Melanogenesis: Importance of the 4-Substituted Resorcinol Moiety” (International Journal of Molecular Sciences, 2021):
“And” between values parts separate entries of the source, which are not always exact repeats. Identical values can stand only once. “Also recorded” adds a separate entry of the source. Like-named read-outs stand apart in the source and are kept apart here.

Experiments:
[1] = molecular target: T1, mushroom tyrosinase (Agaricus bisporus, UniProt C7FF04); test: Mushroom tyrosinase inhibitory assay (L-tyrosine substrate); type: biochemical; settings: for inhibition at 50 µM / Tyrosinase Inhibition (%): L-tyrosine as substrate, mean ± SEM, NI means no inhibition, 50 μM
Description: The experiment was repeated three times. Mushroom tyrosinase inhibitions % were calculated using:% Inhibition = [1 − (A/B)] × 100(1) where A is the absorbance of the test compound and B is the absorbance of the blank.
Log-linear curves were plotted, and their equations were determined.
Target sequence in this assay (C7FF04 1-392 limits assumed): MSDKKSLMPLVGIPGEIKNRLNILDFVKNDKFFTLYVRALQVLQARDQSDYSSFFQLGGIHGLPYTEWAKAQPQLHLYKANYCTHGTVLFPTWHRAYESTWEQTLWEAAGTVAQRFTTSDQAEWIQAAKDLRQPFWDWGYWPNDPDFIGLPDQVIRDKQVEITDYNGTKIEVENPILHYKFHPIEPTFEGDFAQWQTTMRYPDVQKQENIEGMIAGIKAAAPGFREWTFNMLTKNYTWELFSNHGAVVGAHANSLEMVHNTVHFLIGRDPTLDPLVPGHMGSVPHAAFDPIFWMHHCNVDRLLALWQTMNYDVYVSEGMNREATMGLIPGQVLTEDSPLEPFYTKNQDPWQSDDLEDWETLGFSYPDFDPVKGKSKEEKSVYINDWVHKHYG

[2] = tested on: B16F10 melanoma cells; test: EZ-cytox cell viability assay; type: cell-based, murine; settings: 1–20 µM, 24 h
Description: (§1) EZ-cytox assays were performed to examine whether these compounds are cytotoxic.
(§2) B16F10 murine melanoma cells were purchased from the American Type Culture Collection (ATCC, Manassas, VA, USA). Cells were cultured in Dulbecco’s modified Eagle’s medium (10% fetal bovine serum (FBS), and 1% streptomycin) obtained from Gibco/Thermo Fisher Scientific (Carlsbad, CA, USA) at 37 °C in a 5% CO2 environment. These cultured cells were used for cell viability, melanin content, and cellular tyrosinase inhibitory assays.
(§3) EZ-cytox assays were performed on 1c, 1h, and 2a, according to previously described. B16F10 cells were seeded in a 96-well plate at a density of 5 × 10^4 cells/well and incubated at 37 °C in a humidified 5% CO2 atmosphere overnight. Cells were then treated with different concentrations of 1c, 1h, or 2a (0, 1, 2, 5, 10, or 20 µM) and incubated for 24 h under the same conditions. EZ-cytox solution (10 µL) was then added and the plate was incubated for 3 h at 37 °C in a humidified 5% CO2 atmosphere. Optical densities of wells were measured at 450 nm using an ELISA reader. All experiments were independently repeated three times.

[3] = EZ-cytox cell viability assay; type: cell-based, murine; settings: mouse, B16F10 melanoma cells, 20 µM
Description: as §1, §2, §3

[4] = molecular target: T1, mushroom tyrosinase; test: Kinetic analysis of mushroom tyrosinase inhibition, Lineweaver–Burk plots; type: biochemical; settings: for Mode of tyrosinase inhibition: Lineweaver–Burk analysis, L-tyrosine as substrate
Description: Briefly, 170 μL of a mixture of an aqueous solution of L-[…].0, 2.0, 4.0, or 8.0 mM and 50 mM of potassium phosphate (pH 6.5) was added to a 96-well plate. […] Lineweaver-Burk plots were used to determine Vmax (maximal reaction rates) and KM (Michaelis-Menten constants) of mushroom tyrosinase activities.
Target sequence in this assay (C7FF04 1-392): as the sequence (C7FF04 1-392 limits assumed) above

[5] = molecular target: T2, tyrosinase in B16F10 melanoma cells (Mus musculus, UniProt P11344); test: Cellular tyrosinase activity in α-MSH plus IBMX-stimulated B16F10 melanoma cells; settings: 48 h
T2 sequence (P11344 19-533): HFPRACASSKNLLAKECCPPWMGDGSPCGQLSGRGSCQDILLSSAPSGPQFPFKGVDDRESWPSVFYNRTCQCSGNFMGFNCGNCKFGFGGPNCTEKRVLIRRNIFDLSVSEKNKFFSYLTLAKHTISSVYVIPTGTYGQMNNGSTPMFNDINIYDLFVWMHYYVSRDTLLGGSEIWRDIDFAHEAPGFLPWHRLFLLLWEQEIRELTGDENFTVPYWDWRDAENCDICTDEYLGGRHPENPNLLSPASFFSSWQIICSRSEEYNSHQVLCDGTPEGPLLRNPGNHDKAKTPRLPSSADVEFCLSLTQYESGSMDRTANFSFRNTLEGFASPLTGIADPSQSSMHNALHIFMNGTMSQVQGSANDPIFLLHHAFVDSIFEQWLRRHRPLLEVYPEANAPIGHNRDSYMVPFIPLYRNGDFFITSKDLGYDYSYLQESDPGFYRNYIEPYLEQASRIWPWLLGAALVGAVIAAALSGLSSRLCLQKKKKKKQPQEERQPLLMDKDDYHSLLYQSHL
Description: Cells were washed with PBS two or three times, lysed with a 100 μL of buffer (90 μL of PBS (50 mM), 5 μL of PMSF (0.1 mM), and 5 μL of 1% Triton X-100), frozen at −80 °C for 30 min, and centrifuged at 12,000 rpm for 30 min at 4 °C. Lysate supernatants (80 µL) were mixed with 20 µL of L-dopa (2 mg/mL) in a 96-well plate and incubated at 37 °C for 15 min. […] All the experiments were independently repeated three times.

[6] = tested on: B16F10 melanoma cells; test: Melanin content assay in α-MSH plus IBMX-stimulated B16F10 melanoma cells; type: cell-based, murine; settings: 48 h
Description: Melanin contents in B16F10 cells were assessed by measuring optical densities spectrophotometrically. […] After washing cells with PBS two or three times, they were incubated for 1 h in 100 µL of 1N NaOH solution at 60 °C. […] All experiments were independently repeated three times.

[7] = inhibitor 10 μM, L-tyrosine 1.0–8.0 mM
[8] = inhibitor 20 μM, L-tyrosine 1.0–8.0 mM
[9] = inhibitor 40 μM, L-tyrosine 1.0–8.0 mM
[10] = not dependent on inhibitor concentration
[11] = 1.56 μM, read-out: Average of Inhibition (%)
[12] = 1.56 μM, read-out: Inhibition (%), single determinations
[13] = 3.13 μM, read-out: Average of Inhibition (%)
[14] = 3.13 μM, read-out: Inhibition (%), single determinations
[15] = 6.25 μM, read-out: Average of Inhibition (%)
[16] = 6.25 μM, read-out: Inhibition (%), single determinations
[17] = 12.50 μM, read-out: Average of Inhibition (%)
[18] = 12.50 μM, read-out: Inhibition (%), single determinations
[19] = 25.00 μM, read-out: Average of Inhibition (%)
[20] = 25.00 μM, read-out: Inhibition (%), single determinations
[21] = mushroom tyrosinase, L-tyrosine, read-out: IC50

## COc1ccc2c(c1)oc(=O)c1ccccc12 [Compound 1b, 3-Methoxy-6H-benzo[c]chromen-6-one]
[1]
  inhibition at 50 µM: < 0%

## O=c1oc2cc(O)cc(O)c2c2ccccc12 [Compound 1c, 1,3-Dihydroxy-6H-benzo[c]chromen-6-one]
[2]
  Cytotoxic effect: weakly cytotoxic
[3]
  viability at 24 h, 20 µM: 71.4%
[4]
  Mode of tyrosinase inhibition: competitive inhibitors
[4]; [7]
  Vmax: 0.027 mM/min
[4]; [8]
  Vmax: 0.027 mM/min
[4]; [9]
  Vmax: 0.027 mM/min
[4]; [10]
  Vmax: 0.027 mM/min
[1]; 1.56 μM
  Inhibition (%), single determinations: 4.01% and 2.57%
[1]; [11]
  inhibition at 1.56 µM: 3.06 ± 0.47%
[1]; [12]
  inhibition at 1.56 µM: 2.61%
[1]; 3.13 μM
  Inhibition (%), single determinations: 10.84% and 9.94%
[1]; [13]
  inhibition at 3.13 µM: 10.1 ± 0.37%
[1]; [14]
  inhibition at 3.13 µM: 9.61%
[1]; 6.25 μM
  Inhibition (%), single determinations: 25.08% and 33.10%
[1]; [15]
  inhibition at 6.25 µM: 28.5 ± 2.39%
[1]; [16]
  inhibition at 6.25 µM: 27.3%
[1]; 12.50 μM, 12.5 µM
  Inhibition (%), single determinations: 45.18% and 48.37%
[1]; [17]
  inhibition at 12.5 µM: 45.8 ± 1.37%
[1]; [18]
  inhibition at 12.5 µM: 43.7%
[1]; 25.00 μM
  Inhibition (%), single determinations: 61.85%
[1]; [19]
  inhibition at 25 µM: 61.21 ± 0.32%
[1]; [20]
  inhibition at 25 µM: 60.9%
[1]
  Tyrosinase Inhibition (%): 68.93 ± 0.67%
  inhibition at 50 µM: 69%
[1]; [21]
  IC50: 18.1 ± 0.25 µM

## COc1cc(OC)c2c(c1)oc(=O)c1ccccc12 [Compound 1d, 1,3-Dimethoxy-6H-benzo[c]chromen-6-one]
[1]
  inhibition at 50 µM: < 0%

## O=c1oc2cc(O)cc(O)c2c2ccc(O)cc12 [Compound 1f, 1,3,8-Trihydroxy-6H-benzo[c]chromen-6-one]
[1]
  Tyrosinase Inhibition (%): 12.68 ± 6.09%
  inhibition at 50 µM: 13%

## COc1ccc2c(c1)c(=O)oc1cc(O)ccc12 [Compound 1g, 3-Hydroxy-8-methoxy-6H-benzo[c]chromen-6-one]
[1]
  inhibition at 50 µM: < 0%

## COc1ccc2c(c1)c(=O)oc1cc(O)cc(O)c12 [Compound 1h, 1,3-Dihydroxy-8-methoxy-6H-benzo[c]chromen-6-one]
[2]
  Cytotoxic effect: weakly cytotoxic
[3]
  viability at 24 h, 20 µM: 70.8%
[4]
  Mode of tyrosinase inhibition: competitive inhibitors
[4]; inhibitor 2.5 μM, L-tyrosine 1.0–8.0 mM
  Vmax: 0.031 mM/min
[4]; inhibitor 5 μM, L-tyrosine 1.0–8.0 mM
  Vmax: 0.031 mM/min
[4]; [7]
  Vmax: 0.031 mM/min
[4]; [10]
  Vmax: 0.031 mM/min
[1]
  IC50: 4.14 ± 0.1 µM
  Tyrosinase Inhibition (%): 94.86 ± 0.16%
  inhibition at 50 µM: 95%
[1]; 0.78 μM
  Inhibition (%), single determinations: 15.61% and 18.94%
[1]; 0.78 μM, read-out: Average of Inhibition (%)
  inhibition at 0.78 µM: 16.7 ± 1.1%
[1]; 0.78 μM, read-out: Inhibition (%), single determinations
  inhibition at 0.78 µM: 15.7%
[1]; 1.56 μM
  Inhibition (%), single determinations: 24.63% and 31.11%
[1]; [11]
  inhibition at 1.56 µM: 28 ± 1.88%
[1]; [12]
  inhibition at 1.56 µM: 28.3%
[1]; 3.13 μM
  Inhibition (%), single determinations: 48.92%
[1]; [13]
  inhibition at 3.13 µM: 48.78 ± 0.07%
[1]; [14]
  inhibition at 3.13 µM: 48.7%
[1]; 6.25 μM
  Inhibition (%), single determinations: 63.95% and 66.79%
[1]; [15]
  inhibition at 6.25 µM: 64.9 ± 0.94%
[1]; [16]
  inhibition at 6.25 µM: 64%

## COc1ccc2c(c1)oc(=O)c1cc(OC)ccc12 [Compound 1i, 3,8-Dimethoxy-6H-benzo[c]chromen-6-one]
[1]
  inhibition at 50 µM: < 0%

## COc1cc(OC)c2c(c1)oc(=O)c1cc(OC)ccc12 [Compound 1j, 1,3,8-Trimethoxy-6H-benzo[c]chromen-6-one]
[1]
  inhibition at 50 µM: < 0%

## OCc1ccccc1-c1ccc(O)cc1O [Compound 2a, 2′-(Hydroxymethyl)-[1,1′-biphenyl]-2,4-diol]
[2]
  Cytotoxic effect: No significant cytotoxic effect; also recorded: not cytotoxic
[4]
  Mode of tyrosinase inhibition: competitive inhibitors
[4]; [7]
  Vmax: 0.029 mM/min
[4]; [8]
  Vmax: 0.029 mM/min
[4]; [9]
  Vmax: 0.029 mM/min
[4]; [10]
  Vmax: 0.029 mM/min
[1]; 1.56 μM
  Inhibition (%), single determinations: 0.27% and 0.72% and 1.06%
[1]; [11]
  inhibition at 1.56 µM: 0.68 ± 0.23%
[1]; [13]
  inhibition at 3.13 µM: 15.1 ± 6.53%
[1]; 6.25 μM
  Inhibition (%), single determinations: 31.66% and 31.22%
[1]; [15]
  inhibition at 6.25 µM: 31.71 ± 0.3%
[1]; [16]
  inhibition at 6.25 µM: 32.2%
[1]; 12.50 μM, 12.5 µM
  Inhibition (%), single determinations: 50.39% and 54.31%
[1]; [17]
  inhibition at 12.5 µM: 53.5 ± 1.62%
[1]; [18]
  inhibition at 12.5 µM: 55.8%
[1]; 25.00 μM
  Inhibition (%), single determinations: 68.71% and 69.37%
[1]; [19]
  inhibition at 25 µM: 69.3 ± 0.32%
[1]; [20]
  inhibition at 25 µM: 69.8%
[1]
  Tyrosinase Inhibition (%): 75.92 ± 2.19%
  inhibition at 50 µM: 76%
[1]; [21]
  IC50: 15.7 ± 0.4 µM
[5]; 10 μM, α-MSH plus IBMX, kojic acid 20 μM as comparator
  Cellular tyrosinase activity: greater at 10 μM than kojic acid at 20 μM
[5]; 20 μM, α-MSH plus IBMX, kojic acid 20 µM as comparator
  Cellular tyrosinase activity: much higher than that of kojic acid; also recorded: reduced tyrosinase activity to the untreated control levels
[5]; 5, 10, 20 μM, α-MSH (1 μM) plus IBMX (200 μM)
  Cellular tyrosinase activity: more strongly than KA; also recorded: decreased significantly and concentration-dependently; also recorded: effectively and dose-dependently
[6]; 5 µM, kojic acid 20 µM as comparator
  Melanin content: more potently than kojic acid
[6]; 20 μM, kojic acid 20 µM as comparator
  Melanin content: more so than kojic acid
[6]; 5, 10, 20 μM
  Melanin content: more strongly than KA; also recorded: reduced melanin levels significantly and concentration-dependently; also recorded: effectively and dose-dependently

## COc1ccc(-c2ccccc2CO)c(O)c1 [Compound 2b, 2′-(Hydroxymethyl)-4-methoxy-[1,1′-biphenyl]-2-ol]
[1]
  inhibition at 50 µM: < 0%

## OCc1ccccc1-c1c(O)cc(O)cc1O [Compound 2c, 2′-(Hydroxymethyl)-[1,1′-biphenyl]-2,4,6-triol]
[1]
  Tyrosinase Inhibition (%): 19.78 ± 15.84%
  inhibition at 50 µM: 20%

## COc1cc(O)c(-c2ccccc2CO)c(OC)c1 [Compound 2d, 2′-(Hydroxymethyl)-4,6-dimethoxy-[1,1′-biphenyl]-2-ol]
[1]
  inhibition at 50 µM: < 0%

## OCc1cc(O)ccc1-c1ccc(O)cc1O [Compound 2e, 2′-(Hydroxymethyl)-[1,1′-biphenyl]-2,4,4′-triol]
[1]
  inhibition at 50 µM: < 0%

## COc1ccc(-c2ccc(O)cc2O)c(CO)c1 [Compound 2f, 2′-(Hydroxymethyl)-4′-methoxy-[1,1′-biphenyl]-2,4-diol]
[1]
  inhibition at 50 µM: 47.9 ± 12.8%

## COc1ccc(-c2ccc(OC)cc2CO)c(O)c1 [Compound 2g, 2′-(Hydroxymethyl)-4,4′-dimethoxy-[1,1′-biphenyl]-2-ol]
[1]
  inhibition at 50 µM: < 0%

## COc1ccc(-c2c(O)cc(O)cc2O)c(CO)c1 [Compound 2h, 2′-(Hydroxymethyl)-4′-methoxy-[1,1′-biphenyl]-2,4,6-triol]
[1]
  Tyrosinase Inhibition (%): 26.30 ± 0.75%
  inhibition at 50 µM: 26%

## COc1ccc(-c2c(O)cc(OC)cc2OC)c(CO)c1 [Compound 2i, 2′-(Hydroxymethyl)-4,4′,6-trimethoxy-[1,1′-biphenyl]-2-ol]
[1]
  inhibition at 50 µM: < 0%
